Laboratory results: patent US20070207975A1, “Materials and methods for treating and preventing Her-2/neu overexpressing, FAS-elevated cancer cells” (EVANSTON NORTHWESTERN HEALTHCARE, priority 2006, published 2007)

Key:
Format in all cases: cell-based, human
p185^Her-2/neu = experiment: Flow cytometric analysis of cell surface-associated p185Her-2/neu; details: for reduction of cell surface-associated p185^Her-2/neu expression: 10 mM OA, 48 hours, 0.1% FBS; for down-regulation of p185^Her-2/neu expression: OA 5 mM, trastuzumab 5 mg/ml
Source text: FIG. 1. […] FIG. 2. […] The amount of cell surface-associated p185^Her-2/neu was quantified by flow cytometric analyses using a specific antibody against the extracellular domain of p185^Her-2/neu (Ab-5), as described herein. The mean fluorescence signal±SD (n=3) was quantified using the geo mean fluorescence (GM) parameter provided with the Cell Quest Software (Becton Dickinson). […] After labeling, cells were washed thoroughly, and localization of p185^Her-2/neu was detected by indirect immunofluorescence by incubating with FITC-conjugated anti-mouse IgG. After counterstaining with DAPI, cells were examined and photographed using a Zeiss fluorescent microscope equipped with a built-in camera. […] Before experiments, cells were serum-starved overnight and then cultured in IMEM containing 0.1% FBS in the absence or presence of GLA (Sigma Chemical Co., St. Louis, Mo.). GLA was prepared at a concentration of 1 mg/mL in ethanol and was added to a final concentration of 0, 5, 10, or 20 μg/mL; an equal volume of ethanol was added to control cells. […] A) Cell surface expression of Her-2/neu protein in BT-474 and SK-Br3 cells was determined by flow cytometry using a mouse anti-Her-2/neu antibody directed against the extracellular domain of the p185^Her-2/neu oncoprotein (clone Ab-5; Oncogene Research Products; San Diego, Calif.). Briefly, after GLA or control treatment, cells were washed, harvested, resuspended in phosphate-buffered saline (PBS) containing 1% FBS, and incubated with 5 μg/mL Ab-5 antibody for 1 hour at 4° C. The cells were washed again and then incubated with a fluorescein isothiocyanate (FITC)-conjugated anti-mouse IgG secondary antibody (Jackson ImnunoResearch Laboratories, West Grove, Pa.) diluted 1:200 in cold PBS containing 1% FBS for 45 minutes at 4° C. The cells were washed once more in cold PBS, and flow cytometric analysis was performed with a FACScalibur flow cytometer (Becton Dickinson, San Diego, Calif.) equipped with Cell Quest Software (Becton Dickinson). […] As a control for nonspecific immunofluorescence, cells were stained with the secondary antibody alone (solid black line). The mean fluorescence signal associated with cells for labeled p185^Her-2/neu was quantified using the Geo Mean (GM) fluorescence parameter provided with the software. […] B) Immunoblot analysis of Her-2/neu and PEA3 proteins in control- and GLA-treated BT-474 and SK-Br3 cells. […] Immunoreactive bands were detected by enhanced chemiluminescence reagent (Pierce, Rockford, Ill.). Blots were reprobed with an anti-β-actin goat polyclonal antibody (Santa Cruz Biotechnology) to control for protein loading and transfer. Densitometric values of protein bands were quantified using Scion Imaging Software (Scion Corp., Frederick, Md.).

PEA3 = experiment: Immunoblot analysis of PEA3 protein
Protocol: […] Louis, Mo.). […] […] A) Cell surface expression of Her-2/neu protein in BT-474 and SK-Br3 cells was determined by flow cytometry using a mouse anti-Her-2/neu antibody directed against the extracellular domain of the p185^Her-2/neu oncoprotein (clone Ab-5; Oncogene Research Products; San Diego, Calif.). Briefly, after GLA or control treatment, cells were washed, harvested, resuspended in phosphate-buffered saline (PBS) containing 1% FBS, and incubated with 5 μg/mL Ab-5 antibody for 1 hour at 4° C. The cells were washed again and then incubated with a fluorescein isothiocyanate (FITC)-conjugated anti-mouse IgG secondary antibody (Jackson ImnunoResearch Laboratories, West Grove, Pa.) diluted 1:200 in cold PBS containing 1% FBS for 45 minutes at 4° C. The cells were washed once more in cold PBS, and flow cytometric analysis was performed with a FACScalibur flow cytometer (Becton Dickinson, San Diego, Calif.) equipped with Cell Quest Software (Becton Dickinson). […] As a control for nonspecific immunofluorescence, cells were stained with the secondary antibody alone (solid black line). The mean fluorescence signal associated with cells for labeled p185^Her-2/neu was quantified using the Geo Mean (GM) fluorescence parameter provided with the software. […] B) Immunoblot analysis of Her-2/neu and PEA3 proteins in control- and GLA-treated BT-474 and SK-Br3 cells. Cells were washed twice with PBS and then lysed in buffer (20 m M Tris [pH 7.5], 150 m M NaCl, 1 mM EDTA, 1 m M EGTA, 1% Triton X-100, 2.5 m M sodium pyrophosphate, 1 mM β-glycerolphosphate, 1 mM Na3VO4, 1 μg/ml leupeptin, 1 mM phenylmethylsulfonyl fluoride) for 30 minutes on ice. Equal amounts of protein (10 μg) were heated in sodium dodecyl sulfate (SDS) sample buffer for 10 minutes at 70° C., subjected to electrophoresis on either 3-8% NuPAGE Tris-acetate (p185^Her-2/neu) or 10% SDS-polyacrylamide gel electrophoresis (PEA3) gels, and transferred to nitrocellulose membranes. Nonspecific binding was blocked by incubation for 1 hour with TBS-T (25 mM Tris-HCl [pH 7.5], 150 mM NaCl, and 0.05% Tween-20) containing 5% nonfat dry milk. The treated filters were washed in TBS-T and then incubated with primary antibodies, anti-p185^Her-2/neu mouse monoclonal antibody—Clone Ab-3 [Oncogene Research Products, San Diego, Calif.] and anti-PEA3 mouse monoclonal antibody—sc-113 [Santa Cruz Biotechnology, Santa Cruz, Calif.], for 2 hours in TBS-T containing 5% (w/v) nonfat dry milk. The membranes were washed in TBS-T and horseradish peroxidase—conjugated secondary antibodies in TBS-T were added for 45 minutes. Immunoreactive bands were detected by enhanced chemiluminescence reagent (Pierce, Rockford, Ill.). Blots were reprobed with an anti-β-actin goat polyclonal antibody (Santa Cruz Biotechnology) to control for protein loading and transfer. Densitometric values of protein bands were quantified using Scion Imaging Software (Scion Corp., Frederick, Md.).

AP-2 = AP-2 expression levels

Row | SMILES | levels of cell surface-associated Her-2/neu protein versus vehicle-treated cells (p185^Her-2/neu; BT-474 and SK-Br3 cells, GLA 10 μg/mL for 48 hours) | levels of PEA3 protein (PEA3; BT-474 and SK-Br3, GLA 10 μg/mL for 48 hours) | levels of PEA3 protein (PEA3; MDA-MB-231, GLA exposure) | PEA3 protein expression (PEA3; MDA-MB-453, SK-OV3 and NCI-N87, GLA 10 μg/mL for 48 hours) | AP-2 expression (AP-2; GLA-treated cells) | reduction of cell surface-associated p185^Her-2/neu expression (p185^Her-2/neu; BT-474 cells) | down-regulation of p185^Her-2/neu expression (p185^Her-2/neu; BT-474 cells, alone or concurrently combined) [%] | reduction of cell surface-associated p185^Her-2/neu expression (p185^Her-2/neu; SK-Br3 cells) | down-regulation of p185^Her-2/neu expression (p185^Her-2/neu; SK-Br3 cells, alone or combined) [%] | PEA3 protein levels (PEA3; MCF-7/neo cells, OA supplementation) | PEA3 protein expression (PEA3; SK-Br3, SK-OV3 and NCI-N87, OA 20 μM, 48 hours) | AP-2 expression levels (AP-2; Her-2/neu-overexpressing cancer cells, OA supplementation)
1 | CCCCCC=CCC=CCC=CCCCCC(=O)O [GLA, 6,9,12-octadecatrienoic acid] | substantially lower | increase | not changed substantially | increased | does not appear to regulate | – | – | – | – | – | – | –
2 | CCCCCCCCC=CCCCCCCCC(=O)O [OA, 9-octadecenoic acid] | – | – | – | – | – | up to 46% | 36 | up to 36% | 24 | not significantly affected | significant up-regulation | failed to modulate
